Consider eleven compounds from ChEMBL document CHEMBL1201862, “PubChem BioAssay data set” (2004).

SMILES strings stand for the structures.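 Five compound concentrations were applied to cells in 96-well plates for 48 hours; endpoints were derived by simple linear interpolation of the resulting dose-response curve. Here, GI50 denotes the concentration required for 50% inhibition of growth.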 The source made the active and inactive calls. No stated cut-off is given here; in the data, active = GI50 up to about 1.1 µM and inactive = higher.

Some test systems named below: 786-0; CAKI-1; HCC 2998; HL-60; K562; KM12; M14; Malme-3M; NCI-H460; OVCAR-4; PC-3; SF-295; SF-539; SK-MEL-2; SK-OV-3; UACC-257; UACC-62; UO-31.
What all share (test): NCI-60 cell line screen, 48 h

Consider `CC(C)N1CCN(c2ccncc2S(=O)(=O)N2CCCCC2)CC1`, for which the GI50 in the assay on 786-0, with CAKI-1, with HCC 2998, in the assay on HL-60, in the assay with K562 and with KM12 was > 100 µM (inactive) each time. In addition, the GI50 in the assay with M14, with Malme-3M, in the assay with NCI-H460, in the assay with OVCAR-4, with PC-3 and with SF-295 was > 100 µM (inactive) throughout. For the same compound, the GI50 in the assay with SF-539, in the assay on SK-MEL-2, in the assay with SK-OV-3, in the assay on UACC-257, with UACC-62 and in the assay with UO-31 was > 100 µM (inactive) throughout.
With `C=CC(=O)N1C/C(=C\c2ccc([N+](=O)[O-])cc2)C(=O)/C(=C/c2ccc([N+](=O)[O-])cc2)C1`, the GI50 was < 0.0203 µM (active) in the assay with 786-0; 0.128 µM (active) in the assay on CAKI-1; 0.161 µM (active) in the assay with HCC 2998; > 100 µM (inactive) with HL-60; 0.0982 µM (active) in the assay on K562; 0.175 µM (active) in the assay with KM12. For the same compound, the GI50 with M14 was 0.19 µM (active); with Malme-3M it was 0.201 µM (active); in the assay with NCI-H460 it was 0.147 µM (active); in the assay on OVCAR-4 it was 0.233 µM (active); in the assay with PC-3 it was 0.0698 µM (active); in the assay with SF-295, 0.208 µM (active). Moreover, the GI50 was < 0.019 µM (active) in the assay on SF-539; 0.43 µM (active) in the assay on SK-MEL-2; 1.52 µM (inactive) in the assay with SK-OV-3; 0.794 µM (active) with UACC-257; 0.21 µM (active) in the assay with UACC-62; 0.147 µM (active) in the assay on UO-31.
Consider `O=c1[nH]cc(/C=N\Nc2ccccc2)c(=O)[nH]1`, for which the GI50 with 786-0 is > 100 µM (inactive); in the assay on CAKI-1, > 100 µM (inactive); in the assay on HCC 2998, > 100 µM (inactive); with HL-60, 5.78 µM (inactive); in the assay on K562, 3.96 µM (inactive); with KM12, > 100 µM (inactive). Further, the GI50 in the assay on M14 was > 100 µM (inactive); in the assay on Malme-3M, > 100 µM (inactive); in the assay on NCI-H460 it was 47.8 µM (inactive); with OVCAR-4, > 100 µM (inactive); in the assay with PC-3, > 100 µM (inactive); with SF-295, 25.7 µM (inactive). For the same compound, the GI50 with SF-539 is > 100 µM (inactive); with SK-MEL-2, > 100 µM (inactive); in the assay with SK-OV-3, > 100 µM (inactive); with UACC-257, > 100 µM (inactive); in the assay on UACC-62, 66.7 µM (inactive); with UO-31, > 100 µM (inactive).
Take `O=C(OC(=C(c1ccccc1)c1ccccc1)N1CCCC1=S)C(c1ccccc1)c1ccccc1`: the GI50 in the assay with 786-0 is > 10 µM (inactive); in the assay with CAKI-1, > 10 µM (inactive); in the assay on HCC 2998 it was 9.44 µM (inactive); in the assay with HL-60, > 10 µM (inactive); in the assay on K562, 3.88 µM (inactive); with KM12 it was 4.5 µM (inactive). Further, the GI50 in the assay on M14 is > 10 µM (inactive); with Malme-3M it was > 10 µM (inactive); with NCI-H460, 3.58 µM (inactive); in the assay on OVCAR-4, 8.83 µM (inactive); in the assay on PC-3, 3.24 µM (inactive); in the assay on SF-295, > 10 µM (inactive). For the same compound, the GI50 with SF-539 is > 10 µM (inactive); with SK-MEL-2, > 10 µM (inactive); in the assay on SK-OV-3, 9.18 µM (inactive); with UACC-257, > 10 µM (inactive); in the assay with UACC-62, > 10 µM (inactive); with UO-31 it was > 10 µM (inactive).
Consider `COc1ccc2[nH]c3c(C)c4ccnc(NCCCN(C)CCCNc5ccc6ncn7c8ccccc8c(=O)c5c67)c4c(C)c3c2c1`, for which the GI50 with 786-0 is 0.0632 µM (active); in the assay on CAKI-1, 0.242 µM (active); with HCC 2998 it was 0.0578 µM (active); with HL-60 it was 0.08 µM (active); with K562, 0.0632 µM (active); in the assay on KM12 it was 0.478 µM (active). The GI50 is 0.998 µM (active) with M14; 1.07 µM (active) in the assay on Malme-3M; 0.0782 µM (active) with NCI-H460; 0.106 µM (active) with OVCAR-4; 0.752 µM (active) in the assay on PC-3; 0.34 µM (active) with SF-295. The GI50 in the assay with SF-539 was 0.132 µM (active); in the assay on SK-MEL-2 it was 3.24 µM (inactive); in the assay on SK-OV-3, 2.29 µM (inactive); in the assay on UACC-257, 0.723 µM (active); in the assay with UACC-62, 1.71 µM (inactive); in the assay with UO-31 it was 0.361 µM (active).
Turning to `CC(=O)NCCCCN(CCCNC(C)=O)C(=O)OCc1ccccc1`, the GI50 with 786-0, with CAKI-1, in the assay on HCC 2998, in the assay on HL-60, in the assay on K562 and in the assay on KM12 was > 100 µM (inactive) in each case. Further, the GI50 in the assay with M14, in the assay on Malme-3M, with NCI-H460, in the assay with OVCAR-4, in the assay with PC-3 and with SF-295 was > 100 µM (inactive) throughout. The GI50 in the assay with SF-539 was > 100 µM (inactive); in the assay on SK-MEL-2 it was > 100 µM (inactive); with SK-OV-3 it was > 100 µM (inactive); in the assay on UACC-257, > 100 µM (inactive); in the assay with UACC-62, > 100 µM (inactive); with UO-31, 64.3 µM (inactive).
As to `OCCOCCN1CCN(c2nc(N3CCCC3)c3nc(Cl)c(NCc4ccccc4)nc3n2)CC1`, the GI50 was 13 µM (inactive) with 786-0; 16 µM (inactive) with CAKI-1; 4.29 µM (inactive) in the assay on HCC 2998; 12.1 µM (inactive) in the assay with HL-60; 3.94 µM (inactive) with K562; 10.1 µM (inactive) in the assay on KM12. Moreover, the GI50 in the assay on M14 was 11.6 µM (inactive); with Malme-3M, 15.8 µM (inactive); with NCI-H460, 11.5 µM (inactive); with OVCAR-4, 15 µM (inactive); in the assay on PC-3, 13.9 µM (inactive); in the assay with SF-295, 14.5 µM (inactive). Besides, the GI50 is 24.8 µM (inactive) with SF-539; 17.5 µM (inactive) in the assay on SK-MEL-2; 17.2 µM (inactive) in the assay on SK-OV-3; 14.1 µM (inactive) in the assay with UACC-257; 14 µM (inactive) in the assay with UACC-62; 9.4 µM (inactive) in the assay on UO-31.
With `CC1/C(=N/O)CC(c2ccccc2)N(N=O)C1c1ccccc1` (stereo not drawn), the GI50 in the assay with 786-0, in the assay on CAKI-1, in the assay on HCC 2998, in the assay with HL-60, in the assay with K562 and in the assay on KM12 was > 100 µM (inactive) throughout. Besides, the GI50 with M14, with Malme-3M, with NCI-H460, with OVCAR-4, in the assay with PC-3 and in the assay on SF-295 was > 100 µM (inactive) throughout. Further, the GI50 in the assay with SF-539 was > 100 µM (inactive); in the assay with SK-MEL-2 it was > 100 µM (inactive); with SK-OV-3, 82.4 µM (inactive); with UACC-257, > 100 µM (inactive); with UACC-62, > 100 µM (inactive); in the assay with UO-31, > 100 µM (inactive).
Regarding `N#Cc1c(N)nc2c(C#N)c(N)cc3c2c1Oc1ccccc1-3`, the GI50 with 786-0 was > 100 µM (inactive); in the assay on CAKI-1 it was > 100 µM (inactive); in the assay with HCC 2998 it was > 100 µM (inactive); in the assay with HL-60 it was > 100 µM (inactive); with K562, > 100 µM (inactive); with KM12, 74 µM (inactive). Further, the GI50 in the assay on M14, with Malme-3M, in the assay with NCI-H460, with OVCAR-4, in the assay on PC-3 and with SF-295 was > 100 µM (inactive) throughout. The GI50 in the assay on SF-539, in the assay with SK-MEL-2, in the assay on SK-OV-3, with UACC-257, in the assay on UACC-62 and in the assay on UO-31 was > 100 µM (inactive) throughout.
With `COc1ccc(/C=C(\C#N)c2nc(-c3cc4ccccc4oc3=O)cs2)cc1`, the GI50 was 19.3 µM (inactive) with 786-0; 76 µM (inactive) with CAKI-1; 32.6 µM (inactive) in the assay with HCC 2998; > 100 µM (inactive) in the assay on HL-60; 58.5 µM (inactive) with K562; 24.3 µM (inactive) in the assay on KM12. In addition, the GI50 in the assay on M14 was 24.8 µM (inactive); in the assay with Malme-3M, 20.1 µM (inactive); with NCI-H460 it was 21.4 µM (inactive); in the assay with OVCAR-4, 23.9 µM (inactive); in the assay on PC-3, 47.8 µM (inactive); in the assay with SF-295, 21.9 µM (inactive). The GI50 is 21 µM (inactive) in the assay with SF-539; 33.3 µM (inactive) in the assay with SK-MEL-2; 16.4 µM (inactive) with SK-OV-3; 31.8 µM (inactive) in the assay with UACC-257; 22.7 µM (inactive) with UACC-62; 23.2 µM (inactive) in the assay on UO-31.
With `CNC(=S)N/N=C1\C(=O)N(CN2CCOCC2)c2ccc([N+](=O)[O-])cc21`, the GI50 is 15.3 µM (inactive) in the assay on 786-0; 17.7 µM (inactive) in the assay with CAKI-1; 14.9 µM (inactive) with HCC 2998; 23.6 µM (inactive) in the assay on HL-60; > 100 µM (inactive) in the assay with K562; 22.8 µM (inactive) in the assay on KM12. Further, the GI50 in the assay on M14 was 31.6 µM (inactive); with Malme-3M, 16.1 µM (inactive); in the assay with NCI-H460, 23.4 µM (inactive); in the assay with OVCAR-4, 14.8 µM (inactive); in the assay with PC-3, 22.1 µM (inactive); in the assay on SF-295, 18.2 µM (inactive). Further, the GI50 in the assay on SF-539 is 17.7 µM (inactive); in the assay with SK-MEL-2, 6.5 µM (inactive); in the assay with SK-OV-3, 16.8 µM (inactive); with UACC-257, 25.4 µM (inactive); in the assay with UACC-62 it was 15.3 µM (inactive); in the assay on UO-31, 3.05 µM (inactive).
